# Values joined by “and” are separate entries in the source; they are usually repeats but may differ in a detail not shown here. Equal values may be shown once. “Also recorded” adds a separate entry of the source. Where a name gives a salt, the structure may show the parent alone.
# How the values were obtained:
# Type in all cases: in vivo
# [1] = system: Swiss mice CD1; experiment: forced swim test, Alverine administered intraperitoneally to mice (Example 1); design: key to Dunnett test vs control group: * indicates a significant difference for p < 0.05 (Dunnett test); ns indicates an insignificant result; conditions: for immobility time, individual animals / immobility time, Mean: 30 minutes prior to the test; for immobility time, Mean: N = 10
# Experimental: To establish the advantages according to the present invention a study was carried out to 50 mice. They were divided into 5 groups of 10 mice each. These are Swiss mice CD1 (CD-1® (ICR) IGS (Charles River France) weighing between 25 and 35 g.
# They were placed in a room at a temperature of between 19.5 and 24.5° C. and a relative humidity of 45 to 65% with a light/dark cycle of 12 h, ad libitum access to filtered water and pellets of laboratory-standard food.
# They are placed 15 to 20 per cage, over an acclimatising period of at least 5 days prior to the tests. They are identified by marking on the fur.
# The substance to be tested is Alverine citrate (Sigma, in the form of dry powder, with a salt/base ratio of 1.68) comparatively to imipramine chlorhydrate (Sigma, in the form of dry powder, with a salt/base ratio of 1.13).
# The first group is the control group: it is treated only by excipient.
# The second group is treated with Alverine at a dose of 3 mg/kg
# The third group is treated with Alverine at a dose of 10 mg/kg
# The fourth group is treated with Alverine at a dose of 30 mg/kg
# The fifth group is treated with imipramine (tricyclic antidepressant) at a dose of 10 mg/kg
# The doses are expressed in terms of free active substances. The substances are prepared extemporaneously in the excipient. The treatments are administered 30 minutes prior to the test in a coded and random order intraperitoneally with a volume of 10 ml/kg.
# Thirty minutes following administration the five groups of mice are subjected to the forced swim test, in a vertical Plexiglas cylinder (height 24 cm, diameter 9 cm) containing water (height 6 cm, temperature 18-22° C.). The total duration of immobility is measured over the last four minutes of the test, six minutes in total. A mouse is deemed immobile when it ceases struggling and floats in the water without movements superfluous to those allowing it to keep its head above water. A drop in immobility time is the reflection of an antidepressant effect.
# The forced swim test is a pre-clinical behavioural model, which has good predictive validity and is widely employed for determining the efficacy of antidepressant medications (Borsini and Meli, 1988).
# The results are expressed in total duration of immobility in seconds and as a percentage of variation of the total duration of immobility calculated from the average value of the control group.
# The statistical significance between the treated groups and the control group is determined by a Dunnett test using the residual variation according to analysis of the variance (P<0.05). The data are analysed using <<SigmaStat>> software.
# [2] = system: Swiss mice CD1; experiment: forced swim test, Alverine administered orally to mice (Example 2); design: key to Dunnett test vs control group: * indicates a significant difference for p < 0.05 (Dunnett test); ns indicates an insignificant result; conditions: for immobility time, individual animals / immobility time, Mean: 60 minutes prior to the test; for immobility time, Mean: N = 10
# [3] = system: Swiss mice CD1; experiment: forced swim test, Alverine and fluoxetine administered intraperitoneally to mice (Example 3, second test); conditions: for immobility time, individual animals / immobility time, Mean: 30 minutes prior to the test; for immobility time, Mean: n = 10
# Experimental: These are Swiss mice CD1 (CD-1® (ICR) IGS (Charles River France) weighing between 25 and 35 g. […] They are placed 15 to 20 per cage, over an acclimatising period of at least 5 days prior to the tests. They are identified by marking on the fur. […] The mice were divided into two test comprising six groups of 10 mice each. For the second test: The first group is the control group: it is treated only by excipient. […] The doses are expressed in terms of free active substances. The test substances are prepared extemporaneously in a saline solution. The treatments are co-administered 30 minutes prior to the test in a coded and random order intraperitoneally with a volume of 10 ml/kg (5 ml/kg for each administration). […] The total duration of immobility is measured over the last four minutes of the test, six minutes in total. A mouse is deemed immobile when it ceases struggling and floats in the water without movements superfluous to those allowing it to keep its head above water. A drop in immobility time is the reflection of an antidepressant effect. The forced swim test is a pre-clinical behavioural model, which has good predictive validity and is widely employed for determining the efficacy of antidepressant medications (Borsini and Meli, 1988). The results are expressed in total duration of immobility in seconds and as a percentage of variation of the total duration of immobility calculated from the average value of the control group. The statistical significance between two treated groups is determined by using a Student test (P<0.05) The data are analysed using <<SigmaStat>> software.
# [4] = system: Swiss mice CD1; experiment: observation of secondary effects in mice treated orally (Example 2); conditions: treated orally, 10, 30, 100 mg/kg
# [5] = Alverine citrate 3 mg/kg intraperitoneally
# [6] = Alverine citrate 10 mg/kg intraperitoneally
# [7] = Alverine citrate 30 mg/kg intraperitoneally
# [8] = Alverine citrate 10 mg/kg orally
# [9] = Alverine citrate 30 mg/kg orally
# [10] = Alverine citrate 100 mg/kg orally
# [11] = Alverine 3 mg/kg intraperitoneally
# [12] = Alverine 10 mg/kg intraperitoneally
compound,measurement,setting,value
"CCN(CCCc1ccccc1)CCCc1ccccc1 [Alverine citrate, N-ethyl-3,3′-diphenyldipropylamine]",immobility time compared with mice treated at 10 mg/kg of imipramine,[1]; 10 mg/kg intraperitoneally,comparable
same,% of variation of immobility time vs control group,[1]; [5],−15%
same,Dunnett test vs control group,[1]; [5],ns
same,"immobility time, individual animals",[1]; [5],128 s and 82 s and 151 s and 132 s and 127 s and 88 s and 85 s and 99 s and 93 s and 118 s
same,"immobility time, Mean",[1]; [5],110.3 s
same,% of variation of immobility time vs control group,[1]; [6],−53%
same,Dunnett test vs control group,[1]; [6],* (* indicates a significant difference for p < 0.05 (Dunnett test))
same,"immobility time, individual animals",[1]; [6],29 s and 86 s and 28 s and 30 s and 90 s and 99 s and 65 s and 129 s and 57 s and 3 s
same,"immobility time, Mean",[1]; [6],61.6 s
same,% of variation of immobility time vs control group,[1]; [7],−80%
same,Dunnett test vs control group,[1]; [7],* (* indicates a significant difference for p < 0.05 (Dunnett test))
same,"immobility time, individual animals",[1]; [7],97 sec and 3 sec and 66 sec and 36 sec and 0 sec and 15 sec and 7 sec (2×) and 16 sec and 12 sec
same,"immobility time, Mean",[1]; [7],25.9 s
same,antidepressant effect (in words),"[1]; injected intraperitoneally, 3 to 30 mg/kg","antidepressant effect related to the dose; also recorded: significant antidepressant effect in mice and equal to that of Imipramine, at comparable doses"
same,% of variation of immobility time vs control group,[2]; [8],−30%
same,Dunnett test vs control group,[2]; [8],ns
same,"immobility time, individual animals",[2]; [8],86 s and 95 s and 104 s and 111 s and 126 s and 108 s and 78 s and 115 s and 106 s and 113 s
same,"immobility time, Mean",[2]; [8],104.2 s
same,% of variation of immobility time vs control group,[2]; [9],−43%
same,Dunnett test vs control group,[2]; [9],* (* indicates a significant difference for p < 0.05 (Dunnett test))
same,"immobility time, individual animals",[2]; [9],104 sec and 80 sec and 64 sec and 70 sec and 105 sec (3×) and 41 sec and 63 sec and 113 sec
same,"immobility time, Mean",[2]; [9],85.0 s
same,% of variation of immobility time vs control group,[2]; [10],−60%
same,Dunnett test vs control group,[2]; [10],* (* indicates a significant difference for p < 0.05 (Dunnett test))
same,"immobility time, individual animals",[2]; [10],52 s and 129 s and 67 s and 6 s and 105 s and 75 s and 81 s and 5 s and 37 s and 32 s
same,"immobility time, Mean",[2]; [10],58.9 s
same,antidepressant effect (in words),"[2]; administered orally, 10 to 100 mg/kg",antidepressant effect related to the dose; also recorded: significant antidepressant effect in mice
same,% of variation of immobility time vs control group,[3]; [11],−37%
same,Dunnett test vs control group,[3]; [11],* (* indicates a significant difference for p < 0.05 (Dunnett test))
same,"immobility time, individual animals",[3]; [11],119 sec and 138 sec and 117 sec (2×) and 110 sec and 73 sec and 47 sec and 124 sec and 72 sec and 32 sec
same,"immobility time, Mean",[3]; [11],94.9 s
same,% of variation of immobility time vs control group,[3]; [12],−49%
same,Dunnett test vs control group,[3]; [12],* (* indicates a significant difference for p < 0.05 (Dunnett test))
same,"immobility time, individual animals",[3]; [12],63 sec and 75 sec (2×) and 77 sec and 46 sec and 6 sec and 113 sec and 89 sec and 104 sec and 125 sec
same,"immobility time, Mean",[3]; [12],77.3 s
same,decrease in the duration of immobilisation as compared to the control group (in words),[3]; tested alone at 3 mg/kg intraperitoneally,statistically significant decrease
same,secondary effect,[4],no secondary effect was observed

# — patent US20050065218A1, “Utilization of alverine, alone or in combination with tricyclic antidepressant or a specific serotonin reuptake inhibitor for the treatment of depression” (priority 2003, published 2005)
